ChEMBL document CHEMBL1201862, “PubChem BioAssay data set” (2004)
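Protocol summary: plate cells (96-well), add compound at 5 concentrations, incubate 48 h, interpolate endpoints linearly. GI50 is the concentration that inhibits growth by half.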 Calls of active or inactive are those of the source. Rule as the data show it: active = GI50 up to about 1.1 µM and inactive = higher.

How the values were obtained:
Experiment in all cases: NCI-60 cell line screen, 48 h
A498 = test system: A498
BT-549 = test system: BT-549
CAKI-1 = test system: CAKI-1
CCRF-CEM = test system: CCRF-CEM
COLO 205 = test system: COLO 205
HCC 2998 = test system: HCC 2998
HCT-116 = test system: HCT-116
HT-29 = test system: HT-29
IGROV-1 = test system: IGROV-1
K562 = test system: K562
MCF7 = test system: MCF7
MDA-N = test system: MDA-N
Malme-3M = test system: Malme-3M
NCI-H226 = test system: NCI-H226
PC-3 = test system: PC-3
SF-268 = test system: SF-268
SK-MEL-28 = test system: SK-MEL-28
SR = test system: SR
SW-620 = test system: SW-620
SK-MEL-2 = test system: SK-MEL-2

Measured: GI50

O=C1C2Cc3c(n(C(=O)c4ccccc4)c4ccccc34)CC2C(=O)N1c1ccc(Nc2ccc(N3C(=O)C4Cc5c(n(C(=O)c6ccccc6)c6ccccc56)CC4C3=O)cc2)cc1 (stereo unspecified)
inactive: A498 > 100 µM | BT-549 > 100 µM | CAKI-1 > 100 µM | CCRF-CEM 40.4 µM | COLO 205 > 100 µM | HCC 2998 > 100 µM | HCT-116 > 100 µM | HT-29 > 100 µM | IGROV-1 > 100 µM | K562 > 100 µM | MCF7 > 100 µM | MDA-N > 100 µM | Malme-3M > 100 µM | NCI-H226 > 100 µM | PC-3 > 100 µM | SF-268 > 100 µM | SK-MEL-28 > 100 µM | SR 44.4 µM

N#Cc1nc(-c2ccc(-c3nc(C#N)c(N)o3)cc2)oc1N
inactive: BT-549 > 10 µM | CAKI-1 > 10 µM | CCRF-CEM > 10 µM | COLO 205 > 10 µM | HCC 2998 > 10 µM | HCT-116 > 10 µM | HT-29 > 10 µM | IGROV-1 > 10 µM | K562 > 10 µM | MCF7 > 10 µM | MDA-N > 10 µM | Malme-3M > 10 µM | NCI-H226 > 10 µM | PC-3 > 10 µM | SF-268 > 10 µM | SK-MEL-28 > 10 µM | SR > 10 µM | SW-620 > 10 µM

CO/N=C(/C(=O)OC)c1ccccc1COc1ccccc1C(F)(F)F
inactive: A498 39.7 µM | BT-549 79.1 µM | CAKI-1 20.1 µM | CCRF-CEM 13 µM | COLO 205 25.4 µM | HCC 2998 27.9 µM | HCT-116 25.1 µM | HT-29 26.1 µM | IGROV-1 20.7 µM | K562 19.6 µM | MCF7 39.4 µM | MDA-N 28.1 µM | Malme-3M 11.6 µM | NCI-H226 68.4 µM | PC-3 33.5 µM | SF-268 32.6 µM | SK-MEL-28 37.8 µM | SK-MEL-2 20.8 µM | SR 8.32 µM

O=C(Nc1ccccc1)c1cc(S(=O)(=O)N2CCNNC2=O)c(S)cc1Cl
inactive: A498 > 100 µM | BT-549 37.5 µM | CAKI-1 > 100 µM | CCRF-CEM 71.9 µM | COLO 205 > 100 µM | HCC 2998 > 100 µM | HCT-116 40.1 µM | IGROV-1 > 100 µM | K562 84.9 µM | MCF7 > 100 µM | MDA-N > 100 µM | Malme-3M 56.1 µM | NCI-H226 > 100 µM | PC-3 > 100 µM | SF-268 > 100 µM | SK-MEL-28 > 100 µM | SK-MEL-2 > 100 µM | SR 95.3 µM | SW-620 33 µM

O=C(O)c1ccc(/N=C(\C(=N\c2ccc(C(=O)O)cc2)c2ccccc2)c2ccccc2)cc1
inactive: A498 > 100 µM | BT-549 33.5 µM | COLO 205 > 100 µM | HCC 2998 > 100 µM | HCT-116 > 100 µM | IGROV-1 > 100 µM | K562 > 100 µM | MCF7 > 100 µM | MDA-N > 100 µM | NCI-H226 > 100 µM | PC-3 > 100 µM | SF-268 > 100 µM | SK-MEL-28 > 100 µM | SK-MEL-2 > 100 µM | SR > 100 µM | SW-620 > 100 µM

CN1CCC(O)(C(C)(C)C)CC1
inactive: BT-549 > 100 µM | CAKI-1 > 100 µM | CCRF-CEM > 100 µM | COLO 205 > 100 µM | HCC 2998 > 100 µM | HCT-116 > 100 µM | HT-29 > 100 µM | IGROV-1 > 100 µM | K562 > 100 µM | MCF7 > 100 µM | MDA-N > 100 µM | Malme-3M > 100 µM | NCI-H226 > 100 µM | PC-3 > 100 µM | SF-268 > 100 µM | SK-MEL-28 > 100 µM | SK-MEL-2 > 100 µM | SR > 100 µM | SW-620 > 100 µM

NC(Cn1ccc(=O)c(O)c1)C(=O)O (stereo unspecified) [MIMOSINE]
inactive: A498 > 100 µM | BT-549 > 100 µM | CAKI-1 > 100 µM | CCRF-CEM 33.7 µM | COLO 205 > 100 µM | HCC 2998 > 100 µM | HCT-116 > 100 µM | HT-29 > 100 µM | IGROV-1 > 100 µM | MCF7 > 100 µM | MDA-N > 100 µM | Malme-3M 54.8 µM | NCI-H226 > 100 µM | PC-3 > 100 µM | SF-268 > 100 µM | SK-MEL-28 > 100 µM | SK-MEL-2 > 100 µM | SR 49.4 µM | SW-620 > 100 µM

FC(F)(F)c1cc(Cl)cnc1N/N=C(/c1ccccc1)c1ccccn1
active: CCRF-CEM 0.492 µM | HT-29 0.248 µM | SF-268 0.78 µM | SR 0.708 µM
inactive: BT-549 6.93 µM | CAKI-1 3.37 µM | COLO 205 2.03 µM | HCC 2998 8 µM | HCT-116 3.16 µM | IGROV-1 1.92 µM | K562 2.16 µM | MCF7 3.13 µM | MDA-N 17.8 µM | NCI-H226 1.57 µM | PC-3 3.54 µM | SK-MEL-28 6.92 µM | SK-MEL-2 3.96 µM | SW-620 3.85 µM
